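Cultured in 96-well plates, cells were exposed to test compound for 48 hours across five concentrations. Here, GI50 denotes the concentration required for 50% inhibition of growth.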 The source made the active and inactive calls. Rule as the data show it: active = GI50 up to about 1.1 µM and inactive = higher.
How the values were obtained:
Assay in all cases: inhibition of tumour cell growth, NCI panel, 48 h
MDA-MB-435 = test system: MDA-MB-435
OVCAR-3 = test system: OVCAR-3
NCI/ADR-RES = test system: NCI/ADR-RES
ACHN = test system: ACHN
Hs-578T = test system: Hs-578T
NCI-H23 = test system: NCI-H23
A498 = test system: A498
MOLT-4 = test system: MOLT-4
EKVX = test system: EKVX
A549 = test system: A549
SK-MEL-28 = test system: SK-MEL-28
SK-MEL-5 = test system: SK-MEL-5
HT-29 = test system: HT-29
T47D = test system: T47D
HOP-62 = test system: HOP-62
HCT-15 = test system: HCT-15
LOX IMVI = test system: LOX IMVI
MDA-N = test system: MDA-N
SN12C = test system: SN12C
SF-539 = test system: SF-539

Cc1cc(=O)oc2cc(OC(=O)Nc3ccc(Cl)c(Cl)c3)ccc12
GI50 (MDA-MB-435): 20.9 µM (inactive)
GI50 (OVCAR-3): 13 µM (inactive)
GI50 (NCI/ADR-RES): 30.5 µM (inactive)
GI50 (ACHN): 20.9 µM (inactive)
GI50 (Hs-578T): 20.7 µM (inactive)
GI50 (NCI-H23): 20.7 µM (inactive)
GI50 (A498): 14.2 µM (inactive)
GI50 (MOLT-4): 17.1 µM (inactive)
GI50 (EKVX): 30.8 µM (inactive)
GI50 (A549): 24.8 µM (inactive)
GI50 (SK-MEL-28): 25.4 µM (inactive)
GI50 (SK-MEL-5): 16.1 µM (inactive)
GI50 (HT-29): 25.2 µM (inactive)
GI50 (T47D): 12 µM (inactive)
GI50 (HOP-62): 24.7 µM (inactive)
GI50 (HCT-15): 20.9 µM
GI50 (LOX IMVI): 18.9 µM (inactive)
GI50 (MDA-N): 21.3 µM (inactive)
GI50 (SN12C): 25.3 µM (inactive)
GI50 (SF-539): 18.8 µM (inactive)

From ChEMBL document CHEMBL1201862, “PubChem BioAssay data set” (2004)
